Measurements: ChEMBL document CHEMBL4831486, “Design, synthesis and biological evaluation of pleuromutilin-Schiff base hybrids as potent anti-MRSA agents in vitro and in vivo” (Eur J Med Chem, 2021)
In brackets after ≈: the same amount, converted by molar mass.

Experiments:
Escherichia coli [1] = assay: Antibacterial activity against Escherichia coli ATCC 25922 assessed as inhibition of bacterial growth measured after 24 hrs by broth dilution method; assay type: functional
Staphylococcus aureus [2] = assay: Bactericidal activity against Staphylococcus aureus ATCC 29213 assessed as inhibition of bacterial growth measured after 96 hrs by broth dilution method; assay type: functional
Staphylococcus aureus [3] = assay: Antibacterial activity against Methycillin-resistant Staphylococcus aureus ATCC 43300 assessed as inhibition of bacterial growth measured after 24 hrs by broth dilution method; assay type: functional
Escherichia coli [4] = assay: Bactericidal activity against Escherichia coli ATCC 25922 assessed as inhibition of bacterial growth measured after 96 hrs by broth dilution method; assay type: functional
Staphylococcus aureus [5] = assay: Antibacterial activity against Staphylococcus aureus AD3 assessed as inhibition of bacterial growth measured after 24 hrs by broth dilution method; assay type: functional
RAW264.7 = assay: Cytotoxicity against mouse RAW264.7 cells assessed as reduced cell viability at 4 ug/ml measured after 16 hrs by MTT assay; assay type: cell-based; details: raw264.7, 16 h, dose 4 µg/ml
Staphylococcus aureus [6] = assay: Bactericidal activity against Staphylococcus aureus 144 assessed as inhibition of bacterial growth measured after 96 hrs by broth dilution method; assay type: functional
HepG2 = assay: Cytotoxicity against human HepG2 cells assessed as reduced cell viability at 4 ug/ml measured after 16 hrs by MTT assay; assay type: cell-based; details: hepg2, 16 h, dose 4 µg/ml
Staphylococcus aureus [7] = assay: Bactericidal activity against Staphylococcus aureus AD3 assessed as inhibition of bacterial growth measured after 96 hrs by broth dilution method; assay type: functional
Staphylococcus aureus [8] = assay: Antibacterial activity against Staphylococcus aureus ATCC 29213 assessed as inhibition of bacterial growth measured after 24 hrs by broth dilution method; assay type: functional
Staphylococcus aureus [9] = assay: Bactericidal activity against Methycillin-resistant Staphylococcus aureus ATCC 43300 assessed as inhibition of bacterial growth measured after 96 hrs by broth dilution method; assay type: functional
Staphylococcus aureus [10] = assay: Antibacterial activity against Staphylococcus aureus 144 assessed as inhibition of bacterial growth measured after 24 hrs by broth dilution method; assay type: functional

Compound	MIC (Escherichia coli [1]) [µg/mL]	MBC (Staphylococcus aureus [2]) [µg/mL]	MIC (Staphylococcus aureus [3]) [µg/mL]	MBC (Escherichia coli [4]) [µg/mL]	MIC (Staphylococcus aureus [5]) [µg/mL]	Activity (RAW264.7)	MBC (Staphylococcus aureus [6]) [µg/mL]	Activity (HepG2)	MBC (Staphylococcus aureus [7]) [µg/mL]	MIC (Staphylococcus aureus [8]) [µg/mL]	MBC (Staphylococcus aureus [9]) [µg/mL]	MIC (Staphylococcus aureus [10]) [µg/mL]
C=C[C@]1(C)C[C@@H](OC(=O)CSc2nnc(C)n2/N=C/c2cccc(C(F)(F)F)c2)[C@]2(C)[C@H](C)CC[C@]3(CCC(=O)[C@H]32)[C@@H](C)[C@@H]1O	> 64	4 (≈ 6.18 µM)	2 (≈ 3.09 µM)	> 64	2 (≈ 3.09 µM)	Non-Toxic	4 (≈ 6.18 µM)	Non-Toxic	4 (≈ 6.18 µM)	2 (≈ 3.09 µM)	4 (≈ 6.18 µM)	4 (≈ 6.18 µM)
C=C[C@]1(C)C[C@@H](OC(=O)CSc2nnc(C)n2/N=C/c2ccc(C#N)cc2)[C@]2(C)[C@H](C)CC[C@]3(CCC(=O)[C@H]32)[C@@H](C)[C@@H]1O	> 64	4 (≈ 6.62 µM)	1 (≈ 1.66 µM)	> 64	2 (≈ 3.31 µM)	Non-Toxic	4 (≈ 6.62 µM)	Non-Toxic	4 (≈ 6.62 µM)	1 (≈ 1.66 µM)	4 (≈ 6.62 µM)	2 (≈ 3.31 µM)
C=C[C@]1(C)C[C@@H](OC(=O)CSc2nnc(C)n2/N=C/c2ccccc2Cl)[C@]2(C)[C@H](C)CC[C@]3(CCC(=O)[C@H]32)[C@@H](C)[C@@H]1O	> 64	2 (≈ 3.26 µM)	1 (≈ 1.63 µM)	> 64	1 (≈ 1.63 µM)	Non-Toxic	4 (≈ 6.52 µM)	Non-Toxic	4 (≈ 6.52 µM)	1 (≈ 1.63 µM)	2 (≈ 3.26 µM)	2 (≈ 3.26 µM)
C=C[C@]1(C)C[C@@H](OC(=O)CSc2nnc(C)n2/N=C/c2ccccc2[N+](=O)[O-])[C@]2(C)[C@H](C)CC[C@]3(CCC(=O)[C@H]32)[C@@H](C)[C@@H]1O	> 64	4 (≈ 6.41 µM)	0.5 (≈ 0.802 µM)	> 64	2 (≈ 3.21 µM)	Non-Toxic	8 (≈ 12.8 µM)	Non-Toxic	8 (≈ 12.8 µM)	1 (≈ 1.6 µM)	1 (≈ 1.6 µM)	2 (≈ 3.21 µM)
C=C[C@]1(C)C[C@@H](OC(=O)CSc2nnc(C)n2/N=C/c2ccccc2O)[C@]2(C)[C@H](C)CC[C@]3(CCC(=O)[C@H]32)[C@@H](C)[C@@H]1O	> 64	2 (≈ 3.36 µM)	0.5 (≈ 0.841 µM)	> 64	1 (≈ 1.68 µM)	Non-Toxic	4 (≈ 6.73 µM)	Non-Toxic	4 (≈ 6.73 µM)	1 (≈ 1.68 µM)	1 (≈ 1.68 µM)	2 (≈ 3.36 µM)
C=C[C@]1(C)C[C@@H](OC(=O)CSc2nnc(C)n2/N=C/c2ccc(C(F)(F)F)cc2)[C@]2(C)[C@H](C)CC[C@]3(CCC(=O)[C@H]32)[C@@H](C)[C@@H]1O	> 64	4 (≈ 6.18 µM)	2 (≈ 3.09 µM)	> 64	2 (≈ 3.09 µM)	Non-Toxic	8 (≈ 12.4 µM)	Non-Toxic	8 (≈ 12.4 µM)	2 (≈ 3.09 µM)	4 (≈ 6.18 µM)	4 (≈ 6.18 µM)
C=C[C@]1(C)C[C@@H](OC(=O)CSc2nnc(C)n2/N=C/c2cccc(C#N)c2)[C@]2(C)[C@H](C)CC[C@]3(CCC(=O)[C@H]32)[C@@H](C)[C@@H]1O	> 64	4 (≈ 6.62 µM)	1 (≈ 1.66 µM)	> 64	2 (≈ 3.31 µM)	Non-Toxic	4 (≈ 6.62 µM)	Non-Toxic	8 (≈ 13.2 µM)	1 (≈ 1.66 µM)	2 (≈ 3.31 µM)	2 (≈ 3.31 µM)
C=C[C@]1(C)C[C@@H](OC(=O)CSc2nnc(C)n2/N=C/c2ccc(F)cc2)[C@]2(C)[C@H](C)CC[C@]3(CCC(=O)[C@H]32)[C@@H](C)[C@@H]1O	> 64	4 (≈ 6.7 µM)	1 (≈ 1.68 µM)	> 64	1 (≈ 1.68 µM)	Non-Toxic	4 (≈ 6.7 µM)	Non-Toxic	4 (≈ 6.7 µM)	1 (≈ 1.68 µM)	2 (≈ 3.35 µM)	2 (≈ 3.35 µM)
C=C[C@]1(C)C[C@@H](OC(=O)CSc2nnc(C)n2/N=C/c2cccc([N+](=O)[O-])c2)[C@]2(C)[C@H](C)CC[C@]3(CCC(=O)[C@H]32)[C@@H](C)[C@@H]1O	> 64	8 (≈ 12.8 µM)	1 (≈ 1.6 µM)	> 64	2 (≈ 3.21 µM)	Non-Toxic	4 (≈ 6.41 µM)	Non-Toxic	8 (≈ 12.8 µM)	2 (≈ 3.21 µM)	2 (≈ 3.21 µM)	2 (≈ 3.21 µM)
C=C[C@]1(C)C[C@@H](OC(=O)CSc2nnc(C)n2/N=C/c2cccc(Cl)c2)[C@]2(C)[C@H](C)CC[C@]3(CCC(=O)[C@H]32)[C@@H](C)[C@@H]1O	> 64	4 (≈ 6.52 µM)	1 (≈ 1.63 µM)	> 64	2 (≈ 3.26 µM)	Non-Toxic	4 (≈ 6.52 µM)	Non-Toxic	4 (≈ 6.52 µM)	1 (≈ 1.63 µM)	2 (≈ 3.26 µM)	2 (≈ 3.26 µM)
C=C[C@]1(C)C[C@@H](OC(=O)CSc2nnc(C)n2/N=C/c2ccc(Cl)cc2)[C@]2(C)[C@H](C)CC[C@]3(CCC(=O)[C@H]32)[C@@H](C)[C@@H]1O	> 64	2 (≈ 3.26 µM)	0.5 (≈ 0.815 µM)	> 64	1 (≈ 1.63 µM)	Non-Toxic	4 (≈ 6.52 µM)	Non-Toxic	4 (≈ 6.52 µM)	1 (≈ 1.63 µM)	2 (≈ 3.26 µM)	2 (≈ 3.26 µM)
C=C[C@]1(C)C[C@@H](OC(=O)CSc2nnc(C)n2/N=C/c2ccc(N(C)C)cc2)[C@]2(C)[C@H](C)CC[C@]3(CCC(=O)[C@H]32)[C@@H](C)[C@@H]1O	> 64	2 (≈ 3.22 µM)	0.5 (≈ 0.804 µM)	> 64	1 (≈ 1.61 µM)	Non-Toxic	4 (≈ 6.43 µM)	Non-Toxic	4 (≈ 6.43 µM)	0.5 (≈ 0.804 µM)	1 (≈ 1.61 µM)	2 (≈ 3.22 µM)
C=C[C@]1(C)C[C@@H](OC(=O)CSc2nnc(C)n2/N=C/c2ccc([N+](=O)[O-])cc2)[C@]2(C)[C@H](C)CC[C@]3(CCC(=O)[C@H]32)[C@@H](C)[C@@H]1O	> 64	4 (≈ 6.41 µM)	1 (≈ 1.6 µM)	> 64	2 (≈ 3.21 µM)	Non-Toxic	8 (≈ 12.8 µM)	Non-Toxic	8 (≈ 12.8 µM)	2 (≈ 3.21 µM)	2 (≈ 3.21 µM)	2 (≈ 3.21 µM)
C=C[C@]1(C)C[C@@H](OC(=O)CSc2nnc(C)n2/N=C/c2cccc(O)c2)[C@]2(C)[C@H](C)CC[C@]3(CCC(=O)[C@H]32)[C@@H](C)[C@@H]1O	> 64	2 (≈ 3.36 µM)	0.5 (≈ 0.841 µM)	> 64	1 (≈ 1.68 µM)	Non-Toxic	4 (≈ 6.73 µM)	Non-Toxic	4 (≈ 6.73 µM)	0.5 (≈ 0.841 µM)	1 (≈ 1.68 µM)	2 (≈ 3.36 µM)
